Experiments:
[1] = Uptake of pitavastatin and eltrombopag in cryopreserved human hepatocytes (oil spin method), comeasurement, micro‐rate constant mechanistic model; format: in vitro ADME; details: human; model 1; conditional mode (minimum‐maximum) for 1 × 10^6 cells
Experimental: (§1) Human hepatocytes were obtained from BioIVT (Brussels, Belgium; lot number: LYB; 10 donor LiverPool (8 Caucasians, 1 African American, and 1 Hispanic) and thawed according to supplier guidelines in Leibovitz L15 medium. Hepatocytes were kept on ice prior to use and were used within 3 hours of defrosting.
(§2) Cells were separated using an oil spin method similar to the literature. ^11 , ^17 After separation, the tubes were frozen on dry ice and the bottom layer was cut off.
(§3) A dilution factor of 100 was used to scale from pmol/mL/1 × 10^5 cells to nmol/mL/1 × 10^6 cells.
(§4) Passive rate constants for movement into and out of the cell (k f.X and k bX, respectively) as well as uptake transporter‐mediated rate constants for association to the transporter (k aX) and dissociation (k dX) and translocation (k tX) from the transporter into the medium and cell, respectively. […] The sets of ODEs for all the models (models 1–4; Table 1 ) tested for structural identifiability and used for parameter estimation are included in the Supplemental Material .
(§5) Parameter estimation was conducted within Monolix 2018 R2 (Lixoft, Antony, France) for each concentration and experiment as an individual data set, where to ensure positivity, a log‐normal distribution was assumed for each parameter, with a proportional residual error model for the observations.
(§6) Hepatocyte Incubations. […] Eltrombopag was dissolved in DMSO to give 30 µmol/mL, then diluted 333-fold to 90 nmol/mL in Leibovitz L15 medium. […] Briefly, 0.5 mL microtubes (12049877, Thermo-Fisher Scientific, Gothenburg, Sweden) layered with 15 µL of 4 % cesium chloride onto which 140 µL of 8:2 silicone oil: mineral oil, with oil red O was added. Samples were taken by transferring 100 µL of hepatocyte suspension into the microtube and spun for 15 s in a Minispin centrifuge (Eppendorf, Horsholm, Denmark), during which time the hepatocytes passed through the oil into the cesium chloride bottom layer. The tubes were then frozen on dry ice and the bottom layer cut off once frozen into a 1 mL deep well plate (260252, Thermo-Fisher Scientific, Gothenburg, Sweden).
(§7) Sample Extraction. 50 µL of water suitable for UPLC (MilliQ ELGA water, Merck-Millipore, Solna, Sweden) and 150 µL of stop solution (50:50 MeOH:MeCN, containing 0.8 % formic acid and 4 pmol/mL 5,5-diethyl-1,3-diphenyl-2-iminobarbituric acid as internal standard) were added to the frozen samples of the cut-off tube bottoms. Samples were mixed on a plate shaker for 1 h and then stored at – 80 °C overnight. Prior to analysis, samples were defrosted and mixed for 30 min before centrifugation of the plates at 4000 g for 20 min at 4 °C. Samples were transferred to a conical bottomed 96 well plate for analysis (249944, Thermo-Fisher Scientific, Gothenburg, Sweden) and diluted 1:1 with MilliQ ELGA water.
(§8) Mechanistic Modeling. […] An estimate for the total amount of transporters (To) can be obtained during the mechanistic modeling process (9, 10), and therefore Tf can be replaced using the conservation law during parameter estimation:
(§9) Parameter estimation for all model were conducted within the Monolix suite 2018 R2 (Lixoft, Antony, France) where to ensure positivity, a log-normal distribution was assumed for each parameter in the candidate models, together with a proportional residual error model for the observations.

human hepatocytes [2] = test: as above; format: in vitro ADME
Experimental: as §1, §2, §3, §4, §5, §6, §7, §8, §9

[3] = Static R value for clinical TrDDI (FDA guidance); parameters: species or system human; details: for R value, static model: eltrombopag perpetrator (75 mg), pitavastatin victim, Eq. 2, FDA cut‐off 1.1
[4] = Fraction unbound in hepatocytes, Rapid Equilibrium Dialysis (RED) device; format: in vitro ADME; details: human, heat inactivated hepatocytes
Experimental: Fraction Unbound in Hepatocytes. The estimation of the fraction unbound in hepatocytes at equilibrium can be obtained using multiple techniques: heat inactivated hepatocytes (3); linear regression obtained using the logD7.4 (4); parameter estimation (1, 3, 5, 6) or as separate binding rate constants determined experimentally (7). […] The RED device works with low volumes across a medium chamber (500 µL, white) and incubation chamber containing the hepatocytes (300 µL, red), and as such has been reported to even out the non-specific binding (NSB) between the membrane and wells, thereby improving recovery (8). The free fraction in the incubation (fu.inc) is calculated as:
fu.inc= [medium chamber] Whiteincubation chamber(Red) . (Eq.S1)
The amount of non-specific binding (NSB) to the labware is important to understand the recovery from the RED device experiment to evaluate the reliability of fu.inc: […]

[5] = Semimechanistic PBPK model simulation in simulated healthy volunteers; parameters: species or system human
Excerpt: Uptake is inhibited by the opposing drug in X 3 via the respective uptake concentration at half of the maximum uptake velocity (K m.up.X) shown as the inhibition constant (K I.up). Passive movement of drug into and out of the liver is through clearances P dif.X and P def.X, respectively. Both drugs are cleared through biliary excretion (CLbi.X) into the gallbladder (X 5), and into X 2 where they can be reabsorbed.
The micro‐rate constants for transporter‐mediated uptake and passive uptake were scaled to macro‐rate constants (see Table 2 ) and then empirically scaled up to the human body (83 kg, healthy adult; ^23 see Table 2 ).
The ODE PBPK model (see Figure 1 for schematic and Supplemental Material for the set of ODEs) was developed using desolve ^27 in R‐studio (v1.1.463, R‐Studio Inc., Boston, MA) running R‐project version 3.6.0 ^28 and was similar to that used for eltrombopag and rosuvastatin. ^5 All figures in this article were generated either within Inkscape (0.93, Inkscape.org, Boston, MA) or cowplot, ggplot2, ^29 , ^30 extrafont, ^31 and Cairo. ^32

[6] = cited from earlier work
[7] = Plasma protein binding and blood:plasma ratio (literature); format: in vitro ADME; details: blood; fu.pl.P/Bl:Pl, Eq. 15, from literature values 3, 24
OATP1B1 and OATP1B3 = details: OATP1B1 and OATP1B3, in vitro; cited from earlier work
human hepatocytes [8] = details: cited from earlier work
[9] = model 1, conditional mode (minimum‐maximum) for 1 × 10^6 cells
[10] = model 1 micro‐rate constants, conditional mode (minimum‐maximum) for 1 × 10^6 cells
[11] = human hepatocytes over 70 seconds

For `O=C(O)C[C@H](O)C[C@H](O)/C=C/c1c(C2CC2)nc2ccccc2c1-c1ccc(F)cc1` [pitavastatin, pitavastatin calcium], the k el [1] was 0.00367 s⁻¹, the “F T.X, fraction transported” value (human hepatocytes [2]; CLup.X/(CLup.X+Pdif.X), Eq. 4) was 0.96 (0.94–0.98) and the “effect of pitavastatin on cellular eltrombopag” value (human hepatocytes [2]; experimental data, except at a pitavastatin incubation of 30–100 nmol/mL) was “No effect”. The “K m.up.X or K I.up.X” value (human hepatocytes [2]; from micro‐rate constants, Eq. 7) was 9,525 ng/mL, the “P def.X” value (human hepatocytes [2]; k bX scaled to a clearance) was 0.62 (0.55‐0.67) µL/min/1 × 10^6 cells and the “P dif.X” value (human hepatocytes [2]; k fX scaled to a clearance) was 0.55 (0.46–0.61) µL/min/1 × 10^6 cells. The “k bX, passive rate constant out of the cell” value (human hepatocytes [2]; [9]) was 0.21 (0.18–0.22) /min, the “k fX, passive rate constant into the cell” value (human hepatocytes [2]; [9]) was 5.5 × 10^−4 (4.6 × 10^−4–6.1 × 10^−4) /min and the “k aX, transporter association rate constant” value (human hepatocytes [2]; [10]) was 0.17 (0.14–0.25) /nmol/min. The “k dX, transporter dissociation rate constant” value (human hepatocytes [2]; [10]) was 2.2 (1.97–2.37) /min, the “k tX, transporter translocation rate constant” value (human hepatocytes [2]; [10]) was 1.65 (1.57–1.74) /min and the “V max.up..X, maximum uptake velocity” value (human hepatocytes [2]; scaled to whole liver, Eq. 6) was 3.0 × 10^7 ng/min/liver. For the same compound, the “P dif.X, passive diffusion into the cell” value (human hepatocytes [2]; scaled to whole liver, Eq. 8) was 118 mL/min/liver, the “P def.X, passive diffusion out of the cell” value (human hepatocytes [2]; scaled to whole liver, Eq. 9) was 104 mL/min/liver and the V max.up (human hepatocytes [2]; transporter rate constants transformed, Eq. 6) was 302 (177–639) pmol/min/1 × 10^6 cells. The K m.up (human hepatocytes [2]; transporter rate constants transformed, Eq. 7) was 22.1 (16.7–25.5) nmol/mL, the “R value, static model” value [3] was 1.07 and the “R value, static model” value ([3]; listed as Pitavastatin) was 1.06–1.07. For the same compound, the “estimated I in.max” value ([3]; pitavastatin as perpetrator, clinical dose 1–4 mg) was 0.5 to 3 nmol/mL, the fraction unbound ([4]; RED device, overnight, pitavastatin 0.3, 10 and 100 nmol/ml, eltrombopag 30 nmol/ml, read-out: f u.inc, fraction unbound in the incubation) was 0.9 and the fraction unbound ([4]; pitavastatin, estimated from RED f u.inc, Eq. 16, read-out: f u.L.X, fraction unbound in the liver) was 0.026. For the same compound, the recovery ([4]; RED device, read-out: analytical recovery) was 55%, the “CLmet.X, metabolic clearance” value ([5]; PBPK model value, Eqs. 10 and 11) was 93 mL/min/liver and the “CLbi.X, biliary clearance” value ([5]; PBPK model value, Eqs. 12 and 13) was 165 mL/min/liver. For the same compound, the clearance ([5]; human, plasma and urine, PBPK model value, Eq. 14) was 12 mL/min, the “K a.X, first‐order absorption rate constant” value ([5]; pitavastatin, from mean residence time PO and IV, Eq. 5) was 0.07 min⁻¹ and the “biliary elimination of pitavastatin” value [6] was 53%. The “AUC0−∞ (literature)” value ([6]; pitavastatin only, oral 1 mg, converted to blood concentration, mean ± SD) was 68 ± 49 ng·h/mL, the Cmax ([6]; pitavastatin only, oral 1 mg, healthy volunteers, converted to blood concentration, mean ± SD) was 38.8 ± 21.9 ng/mL and the “tmax (h)” value ([6]; pitavastatin only, oral 1 mg, healthy volunteers) was 1 (0.5–1) h. For the same compound, the “V c.X, volume of the central compartment” value ([6]; pitavastatin, total blood volume) was 5820. Total blood volume [ ^23 ] mL, the fraction unbound [7] was 0.009 and the fraction transported (OATP1B1 and OATP1B3) was 0.78. The “K m.up.P (literature)” value (human hepatocytes [8]) was 1.4 to 2 µM, the “P dif.P (literature)” value (human hepatocytes [8]) was 0.4–13 µL/min/1 × 10^6 cells and the “V max.up.P (literature)” value (human hepatocytes [8]) was 65–354 pmol/min/1 × 10^6 cells. The “k aP (literature)” value (human hepatocytes [8]; [11]) was 7.4 (51%) /nmol/min/1 × 10^6 cells, the “k dP (literature)” value (human hepatocytes [8]; [11]) was 6.3 /min/1 × 10^6 cells and the “k tP (literature)” value (human hepatocytes [8]; [11]) was 4.3 (85%) /min/1 × 10^6 cells. The “P def.P (literature, micro‐rate constants)” value (human hepatocytes [8]; ref Grandjean et al. 11) was 0.89 (27%) µL/min/1 × 10^6 cells.
